From patent US20240122975A1, “IN VITRO METHODS AND COMPOSITIONS FOR ENHANCING THE ACTIVATION OF DENDRITIC CELLS AND T CELLS, AND FOR INDUCING A TH-1 IMMUNE RESPONSE” (Northwest Biotherapeutics, Inc., priority 2019, published 2024)

System: Immature cryopreserved C57BL/6 and BALB/c DCs
Test: Luminex xMAP cytokine production by cryopreserved murine immature DCs primed with TLR agonist then oxPAPC or PGPC (Example 5)
Type: cell-based, C57BL/6 and BALB/c mice
Details: TLR agonist stimulated murine DCs; increasing concentrations of lipid (1-90 μg/ml, 48 hours)
Procedure: Immature cryopreserved C57BL/6 and BALB/c DCs (Cellero) were rapidly thawed in a water bath at 37° C. and the cells were resuspended in 10 times the volume of RPMI 1640/10% FBS/penicillin/streptomycin/L-glutamine/2-ME. Cells were washed twice using complete media. Thawed cells were plated in triplicate at 2×10^5 cells/well in a 96-well flat bottom TC plate. DCs were primed with 1 μg/ml of LPS (Sigma Aldrich), 1:400 dilution of hBCG (Organon Teknika/Cognate), 1 μg/ml of R848 (Sigma Aldrich), 1 μg/ml Pam2 (Invivogen), 1 μg/ml Pam3 (Invivogen), and 25 μg/ml of Poly I:C HMW (“high molecular weight”; Invivogen) for 3 hrs. Titrated concentrations of oxPAPC (Invivogen) or PGPC (Cayman)—at 1 μg/ml, 3 μg/ml, 10 μg/ml, 30 μg/ml, and 90 μg/ml—were added to appropriate samples and cultured for an additional 48 hours. Cytokine production in 100 μl of culture medium was assessed by a mouse cytokine and chemokine panel, across 26 protein targets (IFNγ; IL12 p70; IL13; IL1β; IL2; IL4; IL5; IL6; TNFα; GM-CSF; IL18; IL10; IL17A; IL22; IL23; IL27; IL9; GROα; IP10; MCP1; MCP3; MIP1α; MIP1β; MIP2; RANTES; and Eotaxin), using Luminex xMAP® multiplex technology using the manufacturer's. The xMAP system is an immunoassay system that can simultaneously detect many targets in a single sample.

## CCCCCCCCCCCCCCCC(=O)OCC(COP(=O)([O-])OCC[N+](C)(C)C)OC(=O)CCCC(=O)O (stereo not shown) [PGPC, 1-palmitoyl-2-glutaryl phosphatidylcholine]
  production of IL-1β: upregulated production
